Where “and” joins values, the source holds several entries; their conditions need not be identical. Equal entries are not always repeated.
Key:
[1] = Colorimetric alkylation rate constant assay with TNB^2− as non-specific thiol; format: physicochemical; set-up: second-order: unit not given here; conditions: for remaining [B]: in µM
[2] = Colorimetric alkylation rate constant assay with thiol N1; format: physicochemical; conditions: for remaining [A]: N1 from calibration curve (N1 in uM); for remaining [A] / remaining [B]: in µM
[3] = Time 2891 sec, [B]0 = 250, Replicates 1-3
[4] = Time 3071 sec, [B]0 = 250, Replicates 1-3
[5] = Time 3252 sec, [B]0 = 250, Replicates 1-3
[6] = Time 3433 sec, [B]0 = 250, Replicates 1-3
[7] = Time 3613 sec, [B]0 = 250, Replicates 1-3

O=C(CCl)Nc1ccc(F)cc1 [Compound C3]
remaining [B] ([1]; Replicate 1, 723 sec, [B]0 = 250): 244.563 | remaining [B] ([1]; Replicate 1, 903 sec, [B]0 = 250): 244.311 | remaining [B] ([1]; Replicate 1, 1084 sec, [B]0 = 250): 243.946 | remaining [B] ([1]; Replicate 1, 1265 sec, [B]0 = 250): 243.644 | remaining [B] ([1]; Replicate 1, 1445 sec, [B]0 = 250): 243.291 | remaining [B] ([1]; Replicate 1, 1626 sec, [B]0 = 250): 242.976 | remaining [B] ([1]; Replicate 1, 1806 sec, [B]0 = 250): 242.497 | remaining [B] ([1]; Replicate 1, 1988 sec, [B]0 = 250): 242.245 | remaining [B] ([1]; Replicate 1, 2168 sec, [B]0 = 250): 242.005 | remaining [B] ([1]; Replicate 1, 2349 sec, [B]0 = 250): 241.552 | remaining [B] ([1]; Replicate 1, 2530 sec, [B]0 = 250): 241.262 | remaining [B] ([1]; Replicate 1, 2710 sec, [B]0 = 250): 240.985 | remaining [B] ([1]; Replicate 2, 542 sec, [B]0=250): 244.808 | remaining [B] ([1]; Replicate 2, 723 sec, [B]0=250): 244.493 | remaining [B] ([1]; Replicate 2, 903 sec, [B]0=250): 244.204 | remaining [B] ([1]; Replicate 2, 1084 sec, [B]0=250): 243.889 | remaining [B] ([1]; Replicate 2, 1265 sec, [B]0=250): 243.586 | remaining [B] ([1]; Replicate 2, 1445 sec, [B]0=250): 243.259 | remaining [B] ([1]; Replicate 2, 1626 sec, [B]0=250): 242.931 | remaining [B] ([1]; Replicate 2, 1806 sec, [B]0=250): 242.666 | remaining [B] ([1]; Replicate 2, 1988 sec, [B]0=250): 242.326 | remaining [B] ([1]; Replicate 2, 2168 sec, [B]0=250): 242.036 | remaining [B] ([1]; Replicate 2, 2349 sec, [B]0=250): 241.734 | remaining [B] ([1]; Replicate 2, 2530 sec, [B]0=250): 241.457 | remaining [B] ([1]; Replicate 2, 2710 sec, [B]0=250): 241.142 | remaining [B] ([1]; Replicate 3, 723 sec, [B]0=250): 244.853 | remaining [B] ([1]; Replicate 3, 903 sec, [B]0=250): 244.526 | remaining [B] ([1]; Replicate 3, 1084 sec, [B]0=250): 244.173 | remaining [B] ([1]; Replicate 3, 1265 sec, [B]0=250): 243.82 | remaining [B] ([1]; Replicate 3, 1445 sec, [B]0=250): 243.568 | remaining [B] ([1]; Replicate 3, 1626 sec, [B]0=250): 243.24 | remaining [B] ([1]; Replicate 3, 1806 sec, [B]0=250): 242.913 | remaining [B] ([1]; Replicate 3, 1988 sec, [B]0=250): 242.686 | remaining [B] ([1]; Replicate 3, 2168 sec, [B]0=250): 242.333 | remaining [B] ([1]; Replicate 3, 2349 sec, [B]0=250): 241.955 | remaining [B] ([1]; Replicate 3, 2530 sec, [B]0=250): 241.627 | remaining [B] ([1]; Replicate 3, 2710 sec, [B]0=250): 241.35 | second-order [1, 3]: 0.0003934 and 0.0003816 and 0.000404 | remaining [B] [1, 3]: 241.06 and 240.569 and 240.801 | second-order [1, 4]: 0.0004067 and 0.0003942 and 0.0004162 | remaining [B] [1, 4]: 240.783 and 240.304 and 240.512 | second-order [1, 5]: 0.0004206 and 0.0004081 and 0.0004267 | remaining [B] [1, 5]: 240.481 and 240.077 and 240.209 | second-order [1, 6]: 0.0004352 and 0.0004273 and 0.0004471 | remaining [B] [1, 6]: 240.065 and 239.636 and 239.894 | second-order [1, 7]: 0.0004498 and 0.0004372 and 0.0004612 | remaining [B] [1, 7]: 239.851 | second-order ([1]; Time 3794 sec, [B]0 = 250, Replicates 1-3): 0.0004633 and 0.0004542 and 0.0004754 | second-order ([1]; Time 3974 sec, [B]0 = 250, Replicates 1-3): 0.0004793 and 0.0004648 and 0.0004891 | second-order ([1]; Time 4155 sec, [B]0 = 250, Replicates 1-3): 0.0004918 and 0.0004819 and 0.0004992 | second-order ([1]; Time 4336 sec, [B]0 = 250, Replicates 1-3): 0.0005073 and 0.0004944 and 0.000519 | second-order ([1]; Time 4516 sec, [B]0 = 250, Replicates 1-3): 0.0005217 and 0.00051 and 0.0005352 | second-order ([1]; Time 4697 sec, [B]0 = 250, Replicates 1-3): 0.0005368 and 0.0005292 and 0.0005485 | second-order ([1]; Time 4878 sec, [B]0 = 250, Replicates 1-3): 0.0005501 and 0.00054 and 0.0005589 | second-order ([1]; Time 5058 sec, [B]0 = 250, Replicates 1-3): 0.0005616 and 0.0005558 and 0.0005759 | second-order ([1]; Time 5239 sec, [B]0 = 250, Replicates 1-3): 0.0005799 and 0.0005704 and 0.0005876 | second-order ([1]; Time 5419 sec, [B]0 = 250, Replicates 1-3): 0.0005928 and 0.0005784 and 0.0006067 | second-order ([1]; Time 5600 sec, [B]0 = 250, Replicates 1-3): 0.000607 and 0.0005999 and 0.0006197 | second-order ([1]; Time 5781 sec, [B]0 = 250, Replicates 1-3): 0.0006238 and 0.0006104 and 0.000634 | second-order ([1]; Time 5961 sec, [B]0 = 250, Replicates 1-3): 0.0006375 and 0.0006271 and 0.0006509 | remaining [A] ([2]; Replicate 1, time 576 sec): 79.3821 | remaining [B] ([2]; Replicate 1, time 576 sec, [B]0 = 250): 225.262 | second-order ([2]; Replicate 1, time 576 sec, second-order plot value): 0.001145 | remaining [A] ([2]; Replicate 1, time 606 sec): 78.3561 | remaining [B] ([2]; Replicate 1, time 606 sec, [B]0 = 250): 224.236 | second-order ([2]; Replicate 1, time 606 sec, second-order plot value): 0.001203 | remaining [A] ([2]; Replicate 2, time 576 sec): 78.9353 | remaining [B] ([2]; Replicate 2, time 576 sec, [B]0=250): 225.794 | second-order ([2]; Replicate 2, time 576 sec, second-order plot value): 0.001128 | remaining [A] ([2]; Replicate 2, time 606 sec): 77.6031 | remaining [B] ([2]; Replicate 2, time 606 sec, [B]0=250): 224.461 | second-order ([2]; Replicate 2, time 606 sec, second-order plot value): 0.001203 | remaining [A] ([2]; Replicate 3, time 576 sec): 80.3332 | remaining [B] ([2]; Replicate 3, time 576 sec, [B]0=250): 225.786 | second-order ([2]; Replicate 3, time 576 sec, second-order plot value): 0.001111 | remaining [A] ([2]; Replicate 3, time 606 sec): 79.3051 | remaining [B] ([2]; Replicate 3, time 606 sec, [B]0=250): 224.758 | second-order ([2]; Replicate 3, time 606 sec, second-order plot value): 0.001168 | remaining [B] ([2]; time 0 sec, [B]0 = 250, replicates 1-3): 246.537 and 247.093 and 245.89 | second-order ([2]; time 0 sec, replicates 1-3): 0.000164 and 0.0001357 and 0.0001139 | remaining [B] ([2]; time 30 sec, [B]0 = 250, replicates 1-3): 245.319 and 244.842 and 244.643 | second-order ([2]; time 30 sec, replicates 1-3): 0.0002157 and 0.000185 and 0.0002054 | remaining [B] ([2]; time 60 sec, [B]0 = 250, replicates 1-3): 243.453 and 243.816 and 242.942 | second-order ([2]; time 60 sec, replicates 1-3): 0.0002877 and 0.0002622 and 0.000248 | remaining [B] ([2]; time 91 sec, [B]0 = 250, replicates 1-3): 242.316 and 242.334 and 241.723 | second-order ([2]; time 91 sec, replicates 1-3): 0.0003403 and 0.0003102 and 0.0003108 | remaining [B] ([2]; time 121 sec, [B]0 = 250, replicates 1-3): 241.072 and 241.108 and 240.278 | second-order ([2]; time 121 sec, replicates 1-3): 0.0004041 and 0.0003637 (2×) | remaining [B] ([2]; time 151 sec, [B]0 = 250, replicates 1-3): 240.152 and 239.968 and 239.257 | second-order ([2]; time 151 sec, replicates 1-3): 0.0004499 and 0.0004039 and 0.0004137 | remaining [B] ([2]; time 182 sec, [B]0 = 250, replicates 1-3): 239.232 and 238.714 and 238.265 | second-order ([2]; time 182 sec, replicates 1-3): 0.0004951 and 0.0004446 and 0.0004698 | remaining [B] ([2]; time 212 sec, [B]0 = 250, replicates 1-3): 238.15 and 237.631 and 237.245 | second-order ([2]; time 212 sec, replicates 1-3): 0.0005423 and 0.0004932 and 0.0005191 | remaining [B] ([2]; time 242 sec, [B]0 = 250, replicates 1-3): 236.96 and 236.491 and 236.366 | second-order ([2]; time 242 sec, replicates 1-3): 0.0005835 and 0.0005476 and 0.0005718 | remaining [B] ([2]; time 273 sec, [B]0 = 250, replicates 1-3): 235.85 and 235.38 and 235.431 | second-order ([2]; time 273 sec, replicates 1-3): 0.0006281 and 0.0005992 and 0.0006241 | remaining [B] ([2]; time 303 sec, [B]0 = 250, replicates 1-3): 234.308 and 234.268 and 234.354 | second-order ([2]; time 303 sec, replicates 1-3): 0.0006802 and 0.0006724 and 0.0006773 | remaining [B] ([2]; time 333 sec, [B]0 = 250, replicates 1-3): 233.361 and 233.157 and 233.277 | second-order ([2]; time 333 sec, replicates 1-3): 0.0007331 and 0.0007182 and 0.0007315 | remaining [B] ([2]; time 364 sec, [B]0 = 250, replicates 1-3): 232.279 and 232.188 and 232.341 | second-order ([2]; time 364 sec, replicates 1-3): 0.0007799 and 0.0007714 and 0.0007795 | remaining [B] ([2]; time 394 sec, [B]0 = 250, replicates 1-3): 231.197 and 231.247 and 230.981 | second-order ([2]; time 394 sec, replicates 1-3): 0.0008491 and 0.0008256 and 0.0008268 | remaining [B] ([2]; time 424 sec, [B]0 = 250, replicates 1-3): 230.602 and 230.05 and 230.442 | second-order ([2]; time 424 sec, replicates 1-3): 0.000877 and 0.0008557 and 0.000888 | remaining [B] ([2]; time 454 sec, [B]0 = 250, replicates 1-3): 229.357 and 229.309 and 229.478 | second-order ([2]; time 454 sec, replicates 1-3): 0.0009274 and 0.0009198 and 0.0009265 | remaining [B] ([2]; time 485 sec, [B]0 = 250, replicates 1-3): 228.681 and 228.084 and 229.195 | second-order ([2]; time 485 sec, replicates 1-3): 0.0009424 and 0.0009551 and 0.0009912 | remaining [B] ([2]; time 515 sec, [B]0 = 250, replicates 1-3): 227.112 and 227.086 and 227.097 | second-order ([2]; time 515 sec, replicates 1-3): 0.001056 and 0.001039 and 0.001045 | remaining [B] ([2]; time 545 sec, [B]0 = 250, replicates 1-3): 226.462 and 226.317 and 225.935 | second-order ([2]; time 545 sec, replicates 1-3): 0.00112 and 0.001074 and 0.001087

Source: publication PMC12669040, “Tumour-specific STING agonist synthesis via a two-component prodrug system” (Nature Chemistry, 2025)
